Results as given in ChEMBL document CHEMBL5584251, “Design and synthesis of novel and potent allosteric HIV-1 integrase inhibitors with a spirocyclic moiety” (Bioorg Med Chem Lett, 2024).
One block for each compound: values may come before it.

Legend:
[1] = biological target: Human immunodeficiency virus type 1 integrase (Human immunodeficiency virus 1, UniProt Q7ZJM1); test: Allosteric inhibition of HIV-1 integrase by ELISA based IN-DNA assembly/Strand transfer assay
[2] = tested on: Human immunodeficiency virus 1; test: Antiviral activity against wild type HIV-1 NL4-3 infected in human MT4 cells assessed as reduction in viral replication; type: functional, organism-based; settings: Human immunodeficiency virus 1, NL4-3, MT4
[3] = tested on: Human immunodeficiency virus 1; test: Antiviral activity against HIV-1 T125A infected in human MT4 cells assessed as reduction in viral replication; type: functional, organism-based; settings: Human immunodeficiency virus 1, T125A
[4] = Metabolic stability in human liver microsome; type: ADME; settings: microsomes; note: time not given here
[5] = Metabolic stability in rat liver microsome; type: ADME; settings: microsomes; note: time not given here
[6] = Permeability of the compound in human Caco-2 cells; type: ADME, cell-based; settings: read-out: permeability
[7] = Half life in rat at 0.3 mg/kg, iv; type: ADME, organism-based; settings: in vivo
[8] = Clearance in rat at 0.3 mg/kg, iv; type: ADME, organism-based; settings: in vivo
[9] = Volume of distribution at steady state in rat at 0.3 mg/kg, iv; type: ADME, organism-based; settings: in vivo, read-out: Vdss
[10] = MRT in rat at 0.3 mg/kg, iv; type: ADME, organism-based; settings: in vivo
[11] = Oral bioavailability in rat at 3 mg/kg; type: ADME, organism-based; settings: in vivo

Sequence of Human immunodeficiency virus type 1 integrase (Q7ZJM1 whole entry): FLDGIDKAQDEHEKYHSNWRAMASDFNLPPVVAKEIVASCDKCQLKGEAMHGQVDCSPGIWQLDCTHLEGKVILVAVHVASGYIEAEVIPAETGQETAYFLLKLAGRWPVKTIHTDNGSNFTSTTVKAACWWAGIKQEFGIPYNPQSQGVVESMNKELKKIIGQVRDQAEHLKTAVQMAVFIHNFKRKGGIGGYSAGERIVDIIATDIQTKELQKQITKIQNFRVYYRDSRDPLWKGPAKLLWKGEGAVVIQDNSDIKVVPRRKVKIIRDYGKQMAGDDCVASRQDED

SMILES: CNC(=O)c1cc(C)c(C(OC(C)(C)C)C(=O)O)c2c1CC[C@]21CC[C@@H](C)CC1 (some centres undefined)
IC50 [1]: 160 nM
EC50 [2]: 560 nM
EC50 [3]: 9900 nM
Stability [4]: 100%
Stability [5]: 98%
Papp [6]: 8 ×10⁻⁶ cm/s

IC50 [1]: 50 nM
EC50 [2]: 4000 nM
SMILES: Cc1ccc2c(c1C(OC(C)(C)C)C(=O)O)[C@]1(CCC2)CC[C@@H](C)CC1 (mixture of isomers)

SMILES: Cc1ccc2c(c1C(OC(C)(C)C)C(=O)O)[C@]1(CC2)CC[C@@H](C)CC1 (mixture of isomers)
IC50 [1]: 54 nM
EC50 [2]: 5300 nM
EC50 [3]: > 6000 nM
Stability [4]: 57%
Stability [5]: 51%
Papp [6]: 48 ×10⁻⁶ cm/s

SMILES: Cc1cc(C(=O)NC2CCCCC2)c2c(c1C(OC(C)(C)C)C(=O)O)[C@]1(CC2)CC[C@@H](C)CC1 (some centres undefined)
IC50 [1]: 2 nM
EC50 [2]: 21 nM
EC50 [3]: 130 nM
Stability [4]: 94%
Stability [5]: 99%
Papp [6]: 24 ×10⁻⁶ cm/s

SMILES: Cc1cc(C(=O)NC(C)C)c2c(c1C(OC(C)(C)C)C(=O)O)[C@]1(CC2)CC[C@@H](C)CC1 (some centres undefined)
IC50 [1]: 20 nM
EC50 [2]: 110 nM
EC50 [3]: 2700 nM
Stability [4]: 99%
Stability [5]: 96%
Papp [6]: 13 ×10⁻⁶ cm/s

SMILES: Cc1cc(C(=O)NCC(C)C)c2c(c1C(OC(C)(C)C)C(=O)O)[C@]1(CC2)CC[C@@H](C)CC1 (some centres undefined)
IC50 [1]: 5.7 nM
EC50 [2]: 33 nM
EC50 [3]: 3300 nM
Papp [6]: 15 ×10⁻⁶ cm/s

SMILES: Cc1cc(C(=O)N(C)C)c2c(c1C(OC(C)(C)C)C(=O)O)[C@]1(CC2)CC[C@@H](C)CC1 (some centres undefined)
IC50 [1]: 1800 nM
EC50 [2]: 2600 nM
EC50 [3]: > 6000 nM
Stability [4]: 97%
Stability [5]: 94%
Papp [6]: 7 ×10⁻⁶ cm/s

SMILES: Cc1cc(C(=O)NC2CCCCC2)c2c(c1[C@H](OC(C)(C)C)C(=O)O)[C@]1(CC2)CC[C@@H](C)CC1
IC50 [1]: 1.4 nM
EC50 [2]: 7.4 nM
EC50 [3]: 120 nM
Stability [4]: 91%
Stability [5]: 100%
Papp [6]: 20 ×10⁻⁶ cm/s
half-life [7]: 4.2 h
clearance [8]: 2.67 mL/min/kg
Vd [9]: 0.57 L/kg
MRT [10]: 3.6 h
bioavailability [11]: 64%

IC50 [1]: 490 nM
EC50 [2]: 3200 nM
SMILES: Cc1ccc2c(c1C(OC(C)(C)C)C(=O)O)[C@]1(CC[C@H](C)CC1)CC2=O (some centres undefined)

IC50 [1]: 430 nM
EC50 [2]: 15000 nM
SMILES: Cc1ccc2c(c1C(OC(C)(C)C)C(=O)O)[C@]1(CC[C@H](C)CC1)CC2O (some centres undefined)

IC50 [1]: 53 nM
EC50 [2]: 2300 nM
SMILES: COC1C[C@]2(CC[C@@H](C)CC2)c2c1ccc(C)c2C(OC(C)(C)C)C(=O)O (some centres undefined)

SMILES: Cc1cc(C(=O)NC2CCCCCC2)c2c(c1C(OC(C)(C)C)C(=O)O)[C@]1(CC2)CC[C@@H](C)CC1 (some centres undefined)
IC50 [1]: 1.8 nM
EC50 [2]: 21 nM
EC50 [3]: 580 nM
Stability [4]: 83%
Stability [5]: 87%
Papp [6]: 30 ×10⁻⁶ cm/s

SMILES: Cc1cc(C(=O)NC2CCCCC2)c2c(c1[C@@H](OC(C)(C)C)C(=O)O)[C@]1(CC2)CC[C@@H](C)CC1
IC50 [1]: 8.3 nM
EC50 [2]: 110 nM
EC50 [3]: 1200 nM
Stability [4]: 92%
Stability [5]: 100%
Papp [6]: 20 ×10⁻⁶ cm/s

SMILES: Cc1cc(NC(=O)CC(C)C)c2c(c1C(OC(C)(C)C)C(=O)O)[C@]1(CC2)CC[C@@H](C)CC1 (some centres undefined)
IC50 [1]: 2.2 nM
EC50 [2]: 30 nM
EC50 [3]: 940 nM
Stability [4]: 72%
Stability [5]: 97%
Papp [6]: 29 ×10⁻⁶ cm/s

IC50 [1]: 12 nM
SMILES: Cc1ccc(-c2c([C@H](OC(C)(C)C)C(=O)O)c(C)nc3ccccc23)cc1C

SMILES: Cc1cn([C@H]2C[C@H](N=[N+]=[N-])[C@@H](CO)O2)c(=O)[nH]c1=O [ZIDOVUDINE]
EC50 [2]: 29.9 nM
EC50 [3]: 38.9 nM
